Measurements reported in article PMC9496400, “Structural Comparison of hMDH2 Complexed with Natural Substrates and Cofactors: The Importance of Phosphate Binding for Active Conformation and Catalysis” (Biomolecules, 2022).
pKd: −log10 of the molar value. Each block holds one molecule with its values, some of them ahead of it.

Tests used:
Assay type in all cases: binding
[1] = molecular target: T1, human mitochondrial malate dehydrogenase (hMDH2) (Homo sapiens, UniProt P40926); assay: crystal structure of the ternary complex with NADH ([…] Å)
T1 construct: gene MDH2
T1 sequence (P40926 19-338): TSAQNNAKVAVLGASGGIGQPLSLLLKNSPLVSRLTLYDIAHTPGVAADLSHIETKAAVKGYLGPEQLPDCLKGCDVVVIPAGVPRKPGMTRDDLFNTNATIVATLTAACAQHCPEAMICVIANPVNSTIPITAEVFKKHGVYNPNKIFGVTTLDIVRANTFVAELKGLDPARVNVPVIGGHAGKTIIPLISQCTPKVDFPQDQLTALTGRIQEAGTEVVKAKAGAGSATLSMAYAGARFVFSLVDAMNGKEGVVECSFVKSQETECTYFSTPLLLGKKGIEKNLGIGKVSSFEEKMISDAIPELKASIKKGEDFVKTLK

[2] = molecular target: T1, human mitochondrial malate dehydrogenase (hMDH2); assay: crystal structure ([…] Å); competitive replacement ITC with NADH
[3] = molecular target: T1, human mitochondrial malate dehydrogenase (hMDH2); assay: ITC direct titration; crystal structure with oxaloacetate
[4] = molecular target: T1, human mitochondrial malate dehydrogenase (hMDH2); assay: crystal structure ([…] Å)
[5] = molecular target: T1, human mitochondrial malate dehydrogenase (hMDH2); assay: crystal structure ([…] Å); enzyme activity increased by phosphate
[6] = molecular target: T1, human mitochondrial malate dehydrogenase (hMDH2); assay: crystal structure ([…] Å; also with NAD, 4WLU, […] Å)

SMILES: O=C(O)CC(=O)C(=O)O [oxaloacetate]
crystal structure of the ternary complex with NADH (2.50 Å) [1]: Arg104 paired with only one oxygen atom of oxaloacetate

pKd [2]: 2.64
SMILES: NC(=O)c1ccc[n+]([C@@H]2O[C@H](COP(=O)([O-])OP(=O)(O)OC[C@H]3O[C@@H](n4cnc5c(N)ncnc54)[C@H](O)[C@@H]3O)[C@@H](O)[C@H]2O)c1 [NAD]

pKd [3]: 5.52
SMILES: NC(=O)C1=CN([C@@H]2O[C@H](COP(=O)(O)OP(=O)(O)OC[C@H]3O[C@@H](n4cnc5c(N)ncnc54)[C@H](O)[C@@H]3O)[C@@H](O)[C@H]2O)C=CC1 [NADH]

SMILES: O=C(O)CC(O)(CC(=O)O)C(=O)O [citrate]
crystal structure (1.90 Å) [4]: The citrate occupied the substrate binding site in the refined structure.

SMILES: O=P(O)(O)O [phosphate]
crystal structure (2.28 Å); enzyme activity increased by phosphate [5]: two phosphate ions were located in the substrate binding site and a third in the position of the ribose ring

SMILES: O=C(O)C[C@H](O)C(=O)O [L-malate]
crystal structure (2.20 Å; also with NAD, 4WLU, 2.14 Å) [6]: Both L-malate and citrate bound in the same site of hMDH2 and formed hydrogen bonds with the surrounding residues
